Laboratory results as given in patent US10435376B2, “Derivatives of 1H-imidazole-4,5-dicarboxamide and use thereof in preparation of anticoccidial drugs” (GUANGZHOU INSIGHTER BIOTECHNOLOGY CO., LTD., priority 2015, dated 2019).

Columns and labels:
Type in all cases: in vivo
[1] = test system: Eimeria tenella; assay: Inhibitory effects of the derivatives on Eimeria tenella of chicken (60 ppm in feed)
Description: (§1) One-day-old yellow-feather fast-growing broilers were raised in a coccidia-free environment, and divided into groups for trial at the age of 18 days when no coccidian oocysts were detected by microscopy in their faeceas. Weak or overweight broilers were removed, and healthy broilers were divided into 30 groups with 50 broilers in each group and weight difference between each two broilers was below 20 g. Groups 1 and 2 were respectively a control group that the broilers were neither infected nor treated, and a control group that the broilers were infected but not treated. Groups 3 to 30 were respectively administrated with different derivatives. The broilers were given ad libitum access to feed and water when the feed was added with different medicines according to Table 1 at the day the broilers were divided. 24 Hours after the trial began, 250,000 sporulated Eimeria tenella oocysts were inoculated via an oral gavage into the crop of every broiler in each group except group 1. Bloody stool score was measured 5 days after the inoculation and the trial was ended 7 days after the inoculation. Relative weight gain (%), survival rate (%) and the bloody stool score were evaluated.
(§2) Bloody stool score: 0, no bloody stool was observed; 1, bloody stool below 25%; 2, 25 to 50% of bloody stool; 3, 50 to 75% of bloody stool; and 4, bloody stool over 75%.
(§3) Relative weight gain (%): The broilers were weighed at the beginning and the end of the trial to calculate the average weight gain and relative weigh gain. Relative weight gain=(average weight gain of each group/average weight gain of group 1)×100%.
(§4) Deaths of the broilers: Necropsy was performed and the amount of dead broilers in each group was recorded to calculate the survival rate. Survival rate=(total amount of the broilers in each group−amount of deaths caused by coccidial infection)/total amount of the broilers in each group×100%.

[2] = test system: Eimeria tenella; assay: Inhibitory effects of the derivatives of different dosages on Eimeria tenella of chicken; design: key to Score (bloody stool score): 0 = no bloody stool to 4 = bloody stool over 75%; details: broilers, E. tenella; for Score (bloody stool score): 5 days after inoculation
Protocol: as §2, §3, §4
as §1, with “divided into 16 groups with” for “divided into 30 groups with”, “3 to 16 were respectively” for “3 to 30 were respectively”, “with different kinds or different dosages of derivatives. The” for “with different derivatives. The”, “to Table 2 at the” for “to Table 1 at the”, “score were evaluated (according to embodiment 2).” for “score were evaluated.”

[3] = test system: Eimeria necatrix; assay: Inhibitory effects of the derivatives on Eimeria necatrix of chicken
Protocol: as §2, §3, §4
as §1, with “into 10” for “into 30”, “to 10” for “to 30”, “Table 4” for “Table 1”, “began, 100,000” for “began, 250,000”, “Eimeria necatrix” for “Eimeria tenella”, “were evaluated (according to embodiment 2).” for “were evaluated.”

[4] = test system: Eimeria acervulina; assay: Inhibitory effects of the derivatives on Eimeria acervulina of chicken
Protocol: as §3, §4
One-day-old yellow-feather fast-growing broilers were raised in a coccidia-free environment, and divided into groups for trial at the age of 18 days when no coccidian oocysts were detected by microscopy in their faeceas. Weak or overweight broilers were removed, and healthy broilers were divided into 10 groups with 50 broilers in each group and weight difference between each two broilers was below 20 g. Groups 1 and 2 were respectively a control group that the broilers were neither infected nor treated, and a control group that the broilers were infected but not treated. Groups 3 to 10 were respectively administrated with different derivatives. The broilers were given ad libitum access to feed and water when the feed was added with different medicines according to Table 3 at the day the broilers were divided. 24 Hours after the trial began, 400,000 sporulated Eimeria acervulina oocysts were inoculated via an oral gavage into the crop of every broiler in each group except group 1. The trial was ended 7 days after the inoculation. Relative weight gain (%), survival rate (%) and feed conversion ratio were evaluated.

NC(=O)c1ncn(Cc2ccc(C(F)(F)F)cc2)c1C(N)=O [IST15051, 1-(4-(trifluromethyl)benzyl)-1H-imidazole-4,5-dicarboxamide]
anticoccidial activity in view of survival rate, bloody stool score and relative weight gain ([1]; 60 ppm, E. tenella): highest anticoccidial activities | responders at 60 ppm, 60 µg/mL ([1]; Eimeria tenella, 168 h, broilers, 60 ppm in feed, 250,000 E. tenella oocysts, 7 days after inoculation, read-out: Survival rate (%)): 100% | response vs control in vivo at 60 ppm, 60 µg/mL ([1]; Eimeria tenella, 168 h, broilers, 60 ppm in feed, 250,000 E. tenella oocysts, relative to group 1 (not infected, not treated), read-out: Relative weight gain (%)): 101% | Score (bloody stool score) ([1]; broilers, 60 ppm in feed, 250,000 E. tenella oocysts, 5 days after inoculation): 0 | Relative weight gain (%) ([2]; 5 ppm in feed): 80.4% | Survival rate (%) ([2]; 5 ppm in feed): 96% | Score (bloody stool score) ([2]; 5 ppm in feed): 4 (bloody stool over 75%) | Relative weight gain (%) ([2]; 10 ppm in feed): 88.6% | Survival rate (%) ([2]; 10 ppm in feed): 100% | Score (bloody stool score) ([2]; 10 ppm in feed): 2 (25 to 50% of bloody stool) | Relative weight gain (%) ([2]; 20 ppm in feed): 95.9% | Survival rate (%) ([2]; 20 ppm in feed): 100% | Score (bloody stool score) ([2]; 20 ppm in feed): 0 | Relative weight gain (%) ([2]; 50 ppm in feed): 98.7% | Survival rate (%) ([2]; 50 ppm in feed): 100% | Score (bloody stool score) ([2]; 50 ppm in feed): 0 | Relative weight gain (%) ([2]; 100 ppm in feed): 101.2% | Survival rate (%) ([2]; 100 ppm in feed): 100% | Score (bloody stool score) ([2]; 100 ppm in feed): 0 | Relative weight gain (%) ([2]; 200 ppm in feed): 99.4% | Survival rate (%) ([2]; 200 ppm in feed): 100% | Score (bloody stool score) ([2]; 200 ppm in feed): 0 | Relative weight gain (%) ([2]; 500 ppm in feed): 103.6% | Survival rate (%) ([2]; 500 ppm in feed): 100% | Score (bloody stool score) ([2]; 500 ppm in feed): 0 | anticoccidial activity in view of survival rate, bloody stool score and relative weight gain ([3]; 60 ppm, E. necatrix): highest anticoccidial activities | responders at 60 ppm, 60 µg/mL ([3]; Eimeria necatrix, 168 h, read-out: Survival rate (%)): 100% | response vs control in vivo at 60 ppm, 60 µg/mL ([3]; Eimeria necatrix, feed or water, 168 h, broilers, 60 ppm in feed, 100,000 E. necatrix oocysts, read-out: Relative weight gain (%)): 99.5% | Score (bloody stool score) ([3]; broilers, 60 ppm in feed, 100,000 E. necatrix oocysts, 5 days after inoculation): 0 | anticoccidial activity in view of survival rate, relative weight gain and feed conversion ratio ([4]; 60 ppm, E. acervulina): highest anticoccidial activities | responders at 60 ppm, 60 µg/mL ([4]; Eimeria acervulina, 168 h, broilers, 60 ppm in feed, 400,000 E. acervulina oocysts, 7 days after inoculation, read-out: Survival rate (%)): 100% | response vs control in vivo at 60 ppm, 60 µg/mL ([4]; Eimeria acervulina, feed or water, 168 h, broilers, 60 ppm in feed, 400,000 E. acervulina oocysts, read-out: Relative weight gain (%)): 102% | Feed conversion ratio ([4]; broilers, 60 ppm in feed, 400,000 E. acervulina oocysts): 2.109
